“Also recorded” adds a separate entry of the source.
Assays:
Type in all cases: cell-based, Chinese Hamster
[1] = test system: Cell Line 2 (CHO) expressing Antibody 2; test: Cell culture performance, Cell Line 2 lab-scale bioreactor culture; conditions: 0.1 g/L in 100% feed and equivalent in 50% feed
Method: (§1) Four different recombinant Chinese Hamster Ovary (CHO) cell lines expressing four different recombinant glycoproteins were evaluated in either shaker flask culture, or 3 L laboratory scale bioreactors. Cell Line 1 was genetically engineered to express Antibody 1, Cell Line 2 was genetically engineered to express Antibody 2, Cell Line 3 was genetically engineered to express dual variable domain immunoglobulin 1 (DVD1) and Cell Line 4 was genetically engineered to express dual variable domain immunoglobulin 2 (DVD2).
Viable cell density (VCD) and cell viability values were measured through trypan blue exclusion via Cedex automated cell counters (Roche Applied Science, Indianapolis, Ind.), glucose and lactate values were measured with a ABL-805 (Radiometer Medical, Denmark) blood gas analyzer. Offline pH, dissolved oxygen (DO), and pCO2 (Dissolved carbon dioxide) measurements were performed as needed with an ABL-805 (Radiometer Medical, Denmark) blood gas analyzer. Osmolality was measured as needed on a Multi-Osmette 2430 osmometer (Precision Systems, Natick, Mass.).
(§2) Protein A Affinity Chromatography-Antibody titers were measured from crude cell culture harvests on a Poros ATM (Life Technologies, Carlsbad, Calif.) affinity column using an HPLC system operating with a low pH, step elution gradient with detection at 280 nm. […]

[2] = test system: Cell Line 2 (CHO) expressing Antibody 2; test: Cell culture performance, Cell Line 2 shake flask culture; conditions: shaker
Method: as §1
DVD1 and DVD2 were immunoglobulins with two variable domains as documented previously. See Wu et al. (2007). Antibody 1 and Antibody 2 were both IgG1 glycoproteins. All four cell lines were of CHO DUX-B11 origin based on a dhfr (dihydrofolate reductase) expression system and cultured in chemically defined basal medias (CDBM), and fed periodically with chemically-defined feed media (CDFM). All media utilized throughout all of the experiments were chemically-defined, free of animal-component, and protein-free. […]
Viable cell density (VCD) and cell viability values were measured through trypan blue exclusion via Cedex automated cell counters (Roche Applied Science, Indianapolis, Ind.), glucose and lactate values were measured with a ABL-805 (Radiometer Medical, Denmark) blood gas analyzer. […] Osmolality was measured as needed on a Multi-Osmette 2430 osmometer (Precision Systems, Natick, Mass.).
as §2
To further evaluate the impact of EGCG on acidic region variants, Antibody 2 and dual variable domain immunoglobulin 1 (DVD1) were examined. Antibody 2 was evaluated in a set of shaker and lab-scale bioreactor experiments with two feed amounts (100% and 50%) as unsupplemented control conditions. […]

[3] = test system: Cell Line 1 (CHO) expressing Antibody 1; test: Intracellular ROS by flow cytometry (H2-DCF), Cell Line 1 3 L bioreactor culture; conditions: bioreactor cultures; Days 6, 8, 12, 15; vs unsupplemented control
Method: At least 10×10^6 cells were harvested from 3 L bioreactor cultures on Days 6, 8, 12, and 15 after inoculation. Immediately after sampling, the samples were centrifuged and the cell pellet was washed with 1×PBS, and re-suspended in 1 mL of pre-warmed 1×PBS. 2 μL of 2 mM H2-DCF (Life Technologies, Grand Island, N.Y.) in DMSO (Sigma-Aldrich, St. Louis, Mo.) was then added and incubated at 37° C. for 30 minutes and covered from light. The cell suspension was then centrifuged and resuspended in 1×PBS twice to wash the cells and remove residual fluorophore. The cells were then loaded onto a FACSCalibur (Becton Dickinson, Franklin Lakes, N.J.) flow cytometer for the measurement of intracellular ROS at 492-495 nm/517-527 nm excitation/emission.

[4] = test system: Cell Line 1 (CHO) expressing Antibody 1; test: Cell culture performance (cell growth, viability, titer), Cell Line 1 3 L bioreactor fed-batch culture
Method: A recombinant Chinese Hamster Ovary (CHO) cell line (Cell Line 1) expressing a humanized monoclonal antibody (Antibody 1) was evaluated in 2 different cultures vessels (shaker flasks and 3 L laboratory-scale bioreactors). The cell line was of CHO DUX-B11 origin based on a DHFR (dihydrofolate reductase) expression system and cultured in a chemically defined basal media, and fed periodically with a chemically-defined feed media (CDFM). The media utilized throughout all of the experiments were chemically-defined, and both animal-component free, and protein-free. Each of the respective media were supplemented as needed with selected bioflavonoids to evaluate for their potential impact on the resulting acidic species profile. In preparation of the cultures, the cell lines were serially expanded through separate seed train inoculums to generate enough cells for inoculation. Process conditions utilized during the cultures were slightly different depending on the culture scale, but similar within each scale to the respective non-bioflavonoid supplemented control conditions. All bioflavonoids utilized were purchased from Sigma-Aldrich (St. Louis, Mo.).
Viable cell density (VCD) and cell viability values were measured through trypan blue exclusion via Cedex automated cell counters (Roche Applied Science, Indianapolis, Ind.), glucose and lactate values were measured with a ABL-805 (Radiometer Medical, Denmark) blood gas analyzer. Offline pH, dissolved oxygen (DO), and pCO2 measurements were performed as needed with an ABL-805 (Radiometer Medical, Denmark) blood gas analyzer. Osmolality was measured as needed on a Multi-Osmette 2430 osmometer (Precision Systems, Natick, Mass.).
Antibody titers were measured from crude cell culture harvests on a Poros A™ (Life Technologies, Carlsbad, Calif.) affinity column using an HPLC system operating with a low pH, step elution gradient with detection at 280 nm. Absolute concentrations were assigned with respect to reference standard calibration curves.
In the next experiment, lab-scale bioreactors were used to (1) confirm the shaker experiment results and (2) to determine whether higher concentration range of EGCG is suitable for supplementing into cell culture. EGCG was added to the feed of the batch culture at the concentrations of 20 mg/L (mid), 50 mg/L (high) and 125 mg/L (high+) and 250 mg/L (high++) in this reactor experiment.
Cell Line 1 was evaluated in larger-scale feed batch cultures with the feed media supplemented with various bioflavonoids. […] By contrast, cell growth performance was slightly different for the 0.1 g/L EGCG supplemented condition. […] However, the cell viability remained high at 0.1 g/L EGCG. All cultures were successfully harvested on Day 15 post-inoculation. The harvest titers measured from the evaluated cultures were similar.
Cell Line 1 was also evaluated in laboratory-scale fedbatch cultures with the feed media supplemented with various bioflavonoids. […] Cell growth performance was slightly different however with the 0.1 g/L EGCG supplemented condition. […] All cultures were able to be successfully harvested on Day 15 post-inoculation.

O=C(O[C@@H]1Cc2c(O)cc(O)cc2O[C@@H]1c1cc(O)c(O)c(O)c1)c1cc(O)c(O)c(O)c1 [EGCG, epigallocatechin gallate]
impact on cell culture performance (cell growth, viability, titer) [1]: negligible impact on cell culture performance | impact on cell culture performance (cell growth, viability, titer) ([2]; 0.05 and 0.1 g/L in feed): no negative impact on cell culture performance | fold of the average titer of the unsupplemented control conditions ([2]; 0.1 g/L in 100% feed): 1.22 fold | fold of the average titer of the unsupplemented control conditions ([2]; equivalent of 0.1 g/L in 50% feed): 1.11 fold | intracellular ROS level [3]: marked reduction of overall ROS level; also recorded: reduced the intracellular ROS level in a dose-dependent fashion | peak viable cell density ([4]; 0.05 g/L in CDFM, bioreactor, Day 8): approximately 12×10^6 cells/mL | harvest titer vs control ([4]; 0.05 g/L in CDFM, bioreactor, Day 15 harvest): outperforming the control condition by a nominal amount; also recorded: outperformed the control condition by a nominal amount | cell growth profile vs unsupplemented control ([4]; 0.1 g/L in CDFM, bioreactor): lower than the unsupplemented control culture | cell viability ([4]; 0.1 g/L in CDFM, bioreactor): remained high | impact on cell culture performance ([4]; 250 mg/L in feed, bioreactor): reduction in early cell culture viability and titer reduction | impact on cell culture performance (cell growth, viability, titer) ([4]; 20, 50 and 125 mg/L in 1.5×JCL5 feed media, bioreactor): no impact on cell culture performance | concentration (turning point) at which peak viable cell density began to drop lower than unsupplemented control ([4]; Cell Line 1): 0.125 g/L
